Where two headings read alike, the source gives them in different places.
Columns and labels:
Tyk2 kinase domain (DH1) = Tyk2 kinase domain (DH1) (Homo sapiens (Human), UniProt P29597); assay: Tyk2 Radioactive Kinase Assay; type: biochemical; settings: for inhibition at 10 µM: read-out: Tyk2 JH1% Inhibition @ 10 μM
Procedure, shortened: (§1)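 Compounds were tested at a single concentration of 10 μM in a radiometric kinase format against each isolated kinase domain. Activity is reported as percent inhibition at that concentration.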

JAK2 kinase domain (JH1) = JAK2 kinase domain (JH1) (Homo sapiens (Human), UniProt O60674); assay: JAK2 Radioactive Kinase Assay; type: biochemical; settings: for inhibition at 10 µM: read-out: JAK2 JH1% Inhibition @ 10 μM
Procedure, shortened: as §1

[1] = target: JAK2/JAK2 homdimeric complex (Homo sapiens (Human), UniProt O60674); assay: GM-CSF Induced pSTAT5 in Human PBMC; type: cell-based; settings: GM-CSF 5 ng/mL for 20 minutes, pSTAT5 by MSD, read-out: PBMC_GMCSF_pSTAT5 IC50
[2] = target: human TYK2 (JH2domain-pseudokinase) (Homo sapiens (Human), UniProt P29597); assay: TYK2 JH2 Domain Binding Assay (KINOMEscan)
Procedure, shortened: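 Competition binding of a DNA-tagged fusion of human TYK2 JH2 pseudokinase (G556–D888) with NFkB DNA-binding domain, from HEK293 extracts (<0.1 nM final), against immobilised ligand beads; 1 h shaking at room temperature, 0.9% DMSO. Bound kinase quantified by qPCR.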

Chain of Tyk2 kinase domain (DH1) (P29597 897-1176): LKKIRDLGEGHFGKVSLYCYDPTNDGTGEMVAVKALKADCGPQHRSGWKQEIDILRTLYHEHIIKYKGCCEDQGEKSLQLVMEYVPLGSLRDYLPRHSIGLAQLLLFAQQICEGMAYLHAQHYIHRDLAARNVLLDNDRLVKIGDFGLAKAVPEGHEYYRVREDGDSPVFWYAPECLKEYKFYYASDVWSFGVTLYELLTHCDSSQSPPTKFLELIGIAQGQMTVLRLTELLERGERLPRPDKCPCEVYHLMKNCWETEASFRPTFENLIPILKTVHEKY
Chain of JAK2 kinase domain (JH1) (O60674 849-1124): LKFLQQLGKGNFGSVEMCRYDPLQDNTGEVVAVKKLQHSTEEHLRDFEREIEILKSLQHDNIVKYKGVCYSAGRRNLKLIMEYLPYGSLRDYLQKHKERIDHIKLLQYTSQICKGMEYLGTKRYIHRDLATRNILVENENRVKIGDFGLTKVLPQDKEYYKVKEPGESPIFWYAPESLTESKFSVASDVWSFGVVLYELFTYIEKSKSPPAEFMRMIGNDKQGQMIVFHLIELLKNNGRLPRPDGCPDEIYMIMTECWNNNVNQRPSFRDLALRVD
Chain of human TYK2 (JH2domain-pseudokinase) (P29597 556-888): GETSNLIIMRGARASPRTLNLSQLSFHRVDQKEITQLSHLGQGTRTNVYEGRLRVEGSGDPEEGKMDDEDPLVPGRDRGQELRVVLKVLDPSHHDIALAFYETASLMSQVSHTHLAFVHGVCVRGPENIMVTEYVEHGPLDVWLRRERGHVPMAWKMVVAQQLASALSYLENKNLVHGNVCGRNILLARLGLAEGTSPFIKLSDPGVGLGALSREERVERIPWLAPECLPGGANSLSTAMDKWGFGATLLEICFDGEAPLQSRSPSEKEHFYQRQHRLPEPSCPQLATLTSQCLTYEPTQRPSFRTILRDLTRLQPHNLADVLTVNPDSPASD
Chain of JAK2/JAK2 homdimeric complex (O60674 whole entry, the tested form may be a part): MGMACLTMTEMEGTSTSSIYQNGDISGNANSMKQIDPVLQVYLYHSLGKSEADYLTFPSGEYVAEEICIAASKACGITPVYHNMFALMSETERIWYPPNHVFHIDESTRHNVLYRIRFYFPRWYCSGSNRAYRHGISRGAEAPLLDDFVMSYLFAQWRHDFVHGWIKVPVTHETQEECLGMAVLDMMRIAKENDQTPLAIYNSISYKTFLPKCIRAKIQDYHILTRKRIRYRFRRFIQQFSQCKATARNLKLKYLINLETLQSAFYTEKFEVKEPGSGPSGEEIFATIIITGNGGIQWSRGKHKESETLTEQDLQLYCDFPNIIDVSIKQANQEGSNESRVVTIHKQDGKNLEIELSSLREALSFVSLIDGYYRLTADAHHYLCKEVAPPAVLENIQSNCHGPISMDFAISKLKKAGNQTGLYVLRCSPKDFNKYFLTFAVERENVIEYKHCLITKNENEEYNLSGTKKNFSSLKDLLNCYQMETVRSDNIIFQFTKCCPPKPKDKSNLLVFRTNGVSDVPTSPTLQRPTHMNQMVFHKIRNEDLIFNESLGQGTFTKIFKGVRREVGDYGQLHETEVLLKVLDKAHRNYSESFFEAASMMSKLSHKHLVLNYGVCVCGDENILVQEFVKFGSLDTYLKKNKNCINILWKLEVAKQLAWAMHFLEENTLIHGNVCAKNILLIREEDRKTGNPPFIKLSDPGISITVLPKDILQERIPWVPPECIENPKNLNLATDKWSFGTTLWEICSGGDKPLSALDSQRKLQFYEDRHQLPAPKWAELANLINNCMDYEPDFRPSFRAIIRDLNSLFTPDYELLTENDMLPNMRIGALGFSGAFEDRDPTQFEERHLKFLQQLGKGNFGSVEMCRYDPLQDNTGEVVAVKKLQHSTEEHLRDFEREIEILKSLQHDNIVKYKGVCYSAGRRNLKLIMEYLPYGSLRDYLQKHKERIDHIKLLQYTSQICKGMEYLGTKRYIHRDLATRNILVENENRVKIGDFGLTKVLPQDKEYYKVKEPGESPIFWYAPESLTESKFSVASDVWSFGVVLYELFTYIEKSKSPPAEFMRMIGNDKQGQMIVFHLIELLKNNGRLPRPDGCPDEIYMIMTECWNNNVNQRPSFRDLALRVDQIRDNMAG
Chain of JAK2/JAK2 homdimeric complex (P32927 17-897 partner): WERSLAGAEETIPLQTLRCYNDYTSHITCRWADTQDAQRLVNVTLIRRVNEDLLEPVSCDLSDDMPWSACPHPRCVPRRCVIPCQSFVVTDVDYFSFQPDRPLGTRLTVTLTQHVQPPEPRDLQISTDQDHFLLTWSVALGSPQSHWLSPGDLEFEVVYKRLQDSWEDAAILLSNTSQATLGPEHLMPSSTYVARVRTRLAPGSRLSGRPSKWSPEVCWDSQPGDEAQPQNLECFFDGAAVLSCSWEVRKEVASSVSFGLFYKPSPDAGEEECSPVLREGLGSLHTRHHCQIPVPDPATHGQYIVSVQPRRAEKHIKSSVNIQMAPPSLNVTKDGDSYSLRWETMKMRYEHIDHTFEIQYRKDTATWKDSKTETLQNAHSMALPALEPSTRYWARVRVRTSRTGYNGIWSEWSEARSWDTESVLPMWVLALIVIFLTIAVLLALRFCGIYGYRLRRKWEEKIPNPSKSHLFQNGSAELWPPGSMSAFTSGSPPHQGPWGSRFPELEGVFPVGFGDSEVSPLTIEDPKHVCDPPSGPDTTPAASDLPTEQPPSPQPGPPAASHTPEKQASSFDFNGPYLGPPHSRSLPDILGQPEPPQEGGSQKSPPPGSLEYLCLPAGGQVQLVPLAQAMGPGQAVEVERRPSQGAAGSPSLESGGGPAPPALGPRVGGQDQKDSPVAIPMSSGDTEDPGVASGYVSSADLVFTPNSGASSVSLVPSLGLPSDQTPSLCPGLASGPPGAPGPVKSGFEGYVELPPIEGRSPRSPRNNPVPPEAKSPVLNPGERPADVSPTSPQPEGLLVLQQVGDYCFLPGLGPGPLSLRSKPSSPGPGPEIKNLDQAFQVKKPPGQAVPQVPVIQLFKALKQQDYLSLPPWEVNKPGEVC

SMILES	inhibition at 10 µM (Tyk2 kinase domain (DH1); 10 μM compound, 10 μM ATP)	inhibition at 10 µM (JAK2 kinase domain (JH1); 10 μM compound, 10 μM ATP)	IC50 [1]	Kd [2]	Tyk2 JH1% Inhibition @ 10 μM (Tyk2 kinase domain (DH1); 10 μM compound, 10 μM ATP)	JAK2 JH1% Inhibition @ 10 μM (JAK2 kinase domain (JH1); 10 μM compound, 10 μM ATP)	inhibition at 10 µM (JAK2 kinase domain (JH1))	inhibition at 10 µM (Tyk2 kinase domain (DH1))
CNc1cc(Nc2cccn(-c3ccccn3)c2=O)nc2c(C(=O)N[C@H]3CC[C@@H]3O)cnn12 [I-971]	< 50%	< 50%	> 50 µM					
CNc1cc(Nc2cccn([C@H]3CCC[C@H]3O)c2=O)nc2c(C(=O)N[C@H]3CC[C@@H]3OC)cnn12 [I-1101]	< 50%	< 50%	> 50 µM	< 0.0002 µM				
CNc1cc(Nc2cccn([C@H]3CCC[C@@H](OC)C3)c2=O)nc2c(C(=O)N[C@H]3CC[C@@H]3OC)cnn12 [I-996]			> 50 µM	< 0.0002 µM	A (percent inhibition at 10 μM lower than 50)	A (percent inhibition at 10 μM lower than 50)		
CNc1cc(Nc2cccn([C@@H]3CCCOC3)c2=O)nc2c(C(=O)N[C@@H]3CC[C@H]3OC)cnn12 [I-902, N-((1R,2R)-2-methoxycyclobutyl)-7-(methylamino)-5-((2-oxo-1-((R)-tetrahydro-2H-pyran-3-yl)-1,2-dihydropyridin-3-yl)amino)pyrazolo[1,5-a]pyrimidine-3-carboxamide]			> 50 µM			A (percent inhibition at 10 μM lower than 50)		
CNc1cc(Nc2cccn(-c3cccc(F)c3)c2=O)nc2c(C(=O)N[C@H]3CC[C@H]3O)cnn12 [I-1004]			> 12.5 µM	< 0.0002 µM	A (percent inhibition at 10 μM lower than 50)	A (percent inhibition at 10 μM lower than 50)		
CNc1cc(Nc2cccn([C@H]3[C@@H]4COC[C@@H]43)c2=O)nc2c(C(=O)N[C@H]3CC[C@@H]3OC)cnn12 [I-1088]	< 50%	< 50%	> 50 µM					
CNc1cc(Nc2cccn([C@H]3CCCC[C@H]3OC)c2=O)nc2c(C(=O)N[C@H]3CC[C@@H]3OC)cnn12 [I-1097]	< 50%	< 50%	> 50 µM	< 0.0002 µM				
CNc1cc(Nc2cccn([C@H]3CCCC[C@H]3O)c2=O)nc2c(C(=O)NC3CC3)cnn12 [I-878]	< 50%	< 50%	> 50 µM	< 0.0002 µM				
CNc1cc(Nc2cccn(-c3cncc(F)c3)c2=O)nc2c(C(=O)N[C@H]3CC[C@@H]3OC)cnn12 [I-984]			> 50 µM			A (percent inhibition at 10 μM lower than 50)		
CNc1cc(Nc2cccn(C3CCC[C@H](OC)C3)c2=O)nc2c(C(=O)NCC(C)(C)CO)cnn12 (stereo partly shown) [I-958]	< 50%	< 50%	> 50 µM	< 0.0002 µM				
CNc1cc(Nc2cccn([C@@H]3CCCN(CCF)C3)c2=O)nc2c(C(=O)N[C@@H]3CC[C@H]3OC)cnn12 [I-1095]	< 50%	< 50%	> 50 µM	< 0.0002 µM				
CNc1cc(Nc2cccn([C@H]3CCC[C@H]3O)c2=O)nc2c(C(=O)N[C@@H]3C[C@@H]3F)cnn12 [I-965]	< 50%	< 50%	> 50 µM	< 0.0002 µM				
CNc1cc(-c2cn(C3CCOCC3)c3ncccc23)nc2c(C(=O)NC3CCC3O)cnn12 (stereo not shown) [I-1048, N-(2-hydroxycyclobutyl)-7-(methylamino)-5-(1-(tetrahydro-2H-pyran-4-yl)-1H-pyrrolo[2,3-b]pyridin-3-yl)pyrazolo[1,5-a]pyrimidine-3-carboxamide]	< 50%	< 50%	> 2.5 µM	< 0.0002 µM				
CNc1cc(Nc2cccn([C@H]3CC[C@@H]3O)c2=O)nc2c(C(=O)N[C@H]3CC[C@@H]3OC)cnn12 [I-1094]	< 50%	< 50%	> 50 µM	< 0.0002 µM				
CNc1cc(Nc2cccn([C@@H]3CC[C@H]3O)c2=O)nc2c(C(=O)N[C@H]3CC[C@@H]3OC)cnn12 [I-1093]	< 50%	< 50%	> 50 µM	< 0.0002 µM				
CNc1cc(Nc2cccn([C@H]3CCCOC3)c2=O)nc2c(C(=O)N[C@@H]3CC[C@H]3OC)cnn12 [I-815]		< 50%	> 12.5 µM					
CNc1cc(Nc2cccn([C@@H]3CC[C@H]3OC)c2=O)nc2c(C(=O)N[C@@H]3C[C@@H]3F)cnn12 [I-1022]	< 50%	< 50%	> 12.5 µM	< 0.0002 µM				
CNc1cc(Nc2cccn(-c3cnn(C)c3F)c2=O)nc2c(C(=O)N[C@H]3CC[C@@H]3OC)cnn12 [I-1066]	< 50%	< 50%	> 50 µM	< 0.0002 µM				
CNc1cc(Nc2cc(Cl)cn(-c3cnn(C)c3F)c2=O)nc2c(C(=O)NC3CC3)cnn12 [I-955]	< 50%	< 50%	> 12.5 µM	< 0.0002 µM				
CNc1cc(Nc2cccn([C@H]3CCC[C@@H](OC)C3)c2=O)nc2c(C(=O)N[C@@H]3CC[C@H]3O)cnn12 [I-993]			> 50 µM		A (percent inhibition at 10 μM lower than 50)	A (percent inhibition at 10 μM lower than 50)		
CNc1cc(Nc2cccn([C@@H]3CCCOC3)c2=O)nc2c(C(=O)NC3CCC3OC)cnn12 (mixture of isomers) [I-814, N-(-2-methoxycyclobutyl)-7-(methylamino)-5-((2-oxo-1-((R)-tetrahydro-2H-pyran-3-yl)-1,2-dihydropyridin-3-yl)amino)pyrazolo[1,5-a]pyrimidine-3-carboxamide]		< 50%	> 50 µM					
CNc1cc(Nc2cccn(-c3ccccn3)c2=O)nc2c(C(=O)N[C@@H]3CC[C@H]3OC)cnn12 [I-908, N-((1R,2R)-2-methoxycyclobutyl)-7-(methylamino)-5-((2-oxo-2H-[1,2′-bipyridin]-3-yl)amino)pyrazolo[1,5-a]pyrimidine-3-carboxamide]			> 50 µM		A (percent inhibition at 10 μM lower than 50)	A (percent inhibition at 10 μM lower than 50)		
CNc1cc(Nc2cccn([C@H]3CCCOC3)c2=O)nc2c(C(=O)N[C@H]3CC[C@@H]3OC)cnn12 [I-877]		< 50%	> 50 µM					
CNc1cc(Nc2cccn([C@@H]3CCC[C@@H](OC)C3)c2=O)nc2c(C(=O)NC3CC3)cnn12 [I-957]			> 50 µM		A (percent inhibition at 10 μM lower than 50)	A (percent inhibition at 10 μM lower than 50)		
CCONC(=O)c1cnn2c(NC)cc(Nc3cccn(-c4ncccc4F)c3=O)nc12 [I-798, N-ethoxy-5-((3′-fluoro-2-oxo-2H-[1,2′-bipyridin]-3-yl)amino)-7-(methylamino) pyrazolo[1,5-a]pyrimidine-3-carboxamide]			> 50 µM				< 50%	
CNc1cc(Nc2cccnc2OC)nc2c(C(=O)NOC(C)(C)C)cnn12 [I-612, N-(tert-butoxy)-5-((2-methoxypyridin-3-yl)amino)-7-(methylamino) pyrazolo[1,5-a]pyrimidine-3-carboxamide]			> 50 µM				< 50%	
CNc1cc(Nc2cccn(-c3ccccn3)c2=O)nc2c(C(=O)N[C@@H]3CC[C@H]3OC)cnn12 (stereo in doubt) [I-816, N-(2-methoxycyclobutyl)-7-(methylamino)-5-((2-oxo-2H-[1,2′-bipyridin]-3-yl)amino)pyrazolo[1,5-a]pyrimidine-3-carboxamide]			> 2.5 µM				< 50%	< 50%
